Data reported in PubChem BioAssay AID1918957 (Molecular Pharmacology Branch, DTP, NCI, 2023).

Test system: NCI-H1876 complex spheroid viability
Assay: Anticancer human tumor NCI-H1876 cell line growth inhibition [LSD1];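 further: spheroids exposed to compounds for one week before readout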;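 on viability, T/C: 100% = DMSO vehicle-treated spheroids so lower means fewer viable cells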
Conditions: for IC50: curve of first compound; for viability, T/C: stronger effect = lower value
Method in brief: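 Multicellular complex spheroids of tumor cells with human endothelial cells (HUVEC) and mesenchymal stem cells; the LSD1 inhibitor iadademstat was combined with standard-of-care or investigational agents. Top concentration at or near clinical Cmax, half-log dilutions; final DMSO ≤0.25%.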

Work on `O=C(c1cc(Cc2n[nH]c(=O)c3ccccc23)ccc1F)N1CCN(C(=O)C2CC2)CC1` + NC1CC1c1ccc(-c2cccc(O)c2)cc1 yielded an IC50 (second compound 0.1 µM) of 6.19 µM, an IC50 (second compound 0.316 µM) of 6.21 µM and an IC50 (second compound 1 µM) of 6.35 µM. For the same compound, the IC50 (second compound 3.16 µM) was 6.41 µM, the IC50 (second compound 10 µM) was 6.49 µM and the viability, T/C (second compound 0.1 µM, first compound 0.0316 µM) was 101%. It also gave a viability, T/C (second compound 0.1 µM, first compound 0.1 µM) of 99.9%, a viability, T/C (second compound 0.1 µM, first compound 0.316 µM) of 98.2% and a viability, T/C (second compound 0.1 µM, first compound 1 µM) of 90.3%. For the same compound, the viability, T/C (second compound 0.1 µM, first compound 3.16 µM) was 68.3%, the viability, T/C (second compound 0.1 µM, first compound 10 µM) was 36.9% and the viability, T/C (second compound 0.316 µM, first compound 0.0316 µM) was 103%. It also gave a viability, T/C (second compound 0.316 µM, first compound 0.1 µM) of 94.9%, a viability, T/C (second compound 0.316 µM, first compound 0.316 µM) of 97.7% and a viability, T/C (second compound 0.316 µM, first compound 1 µM) of 88.3%. The viability, T/C (second compound 0.316 µM, first compound 3.16 µM) was 66.8%, the viability, T/C (second compound 0.316 µM, first compound 10 µM) was 38% and the viability, T/C (second compound 1 µM, first compound 0.0316 µM) was 106%. The viability, T/C (second compound 1 µM, first compound 0.1 µM) was 99.5%, the viability, T/C (second compound 1 µM, first compound 0.316 µM) was 98.3% and the viability, T/C (second compound 1 µM, first compound 1 µM) was 88.2%. For the same compound, the viability, T/C (second compound 1 µM, first compound 3.16 µM) was 70.2%, the viability, T/C (second compound 1 µM, first compound 10 µM) was 36.7% and the viability, T/C (second compound 3.16 µM, first compound 0.0316 µM) was 102%. It also gave a viability, T/C (second compound 3.16 µM, first compound 0.1 µM) of 96.9%, a viability, T/C (second compound 3.16 µM, first compound 0.316 µM) of 101% and a viability, T/C (second compound 3.16 µM, first compound 1 µM) of 88.4%. It also gave a viability, T/C (second compound 3.16 µM, first compound 3.16 µM) of 72%, a viability, T/C (second compound 3.16 µM, first compound 10 µM) of 36.3% and a viability, T/C (second compound 10 µM, first compound 0.0316 µM) of 99.5%. It also gave a viability, T/C (second compound 10 µM, first compound 0.1 µM) of 94.1%, a viability, T/C (second compound 10 µM, first compound 0.316 µM) of 93.2% and a viability, T/C (second compound 10 µM, first compound 1 µM) of 82%. The viability, T/C (second compound 10 µM, first compound 3.16 µM) was 69.7% and the viability, T/C (second compound 10 µM, first compound 10 µM) was 38.6%.
